Reference: US11911386B2, “Methods of treating B-cell proliferative disorder” (BeiGene Switzerland GmbH, priority 2022, dated 2024)
Where two headings read alike, the source gives them in different places.

Experiments:
[1] = cited from earlier work
[2] = coadministration with itraconazole

In the case of `C=CC(=O)N1CCC([C@@H]2CCNc3c(C(N)=O)c(-c4ccc(Oc5ccccc5)cc4)nn32)CC1` [zanubrutinib, (S)-7-(1-acryloylpiperidin-4-yl)-2-(4-phenoxyphenyl)-4,5,6,7-tetrahydropyrazolo[1,5-a]pyrimidine-3-carboxamide], the “Grade ≥3 AE” value (160 mg bid group) is reported as 28.6%, the Neutropenia (160 mg bid group) is reported as 19.0% and the “Patients with ≥1 AE” value (160 mg bid group) is reported as 95.2%. For the same compound, the SAE (160 mg bid group) was 9.5%, the “Treatment discontinuation due to AEs” value (160 mg bid group) was 4.8% and the “Grade ≥3 AE” value (320 mg qd group) was 32.0%. For the same compound, the Neutropenia (320 mg qd group) was 8.0%, the “Patients with ≥1 AE” value (320 mg qd group) was 96% and the SAE (320 mg qd group) was 16.0%. For the same compound, the “Treatment discontinuation due to AEs” value (320 mg qd group) was 12.0%, the Arthralgia (67 patients) was 13.4% and the Contusion (67 patients) was 22.4%. The “Death (COVID-19 pneumonia)” value (67 patients) was 1.5%, the Diarrhoea (67 patients) was 13.4% and the Epistaxis (67 patients) was 7.5%. The Fatigue (67 patients) was 20.9%, the “Grade ≥3 AEs” value (67 patients) was 29.9% and the Hypertension (67 patients) was 11.9%. For the same compound, the Myalgia (67 patients) was 14.9%, the “Neutropenia or neutrophil count decreased, grade ≥3” value (67 patients) was 11.9% and the “Patients with ≥1 AE” value (67 patients) was 95.5%. For the same compound, the Petechiae (67 patients) was 7.5%, the “Serious AEs” value (67 patients) was 11.9% and the “Syncope, grade ≥3” value (67 patients) was 3.0%. For the same compound, the Atrial fibrillation (67 patients, all grade 2) was 4.5%, the “Patients who discontinued zanubrutinib” value (Cohort 1) was 15.8% and the “Patients who discontinued zanubrutinib due to AEs” value (Cohort 1) was 7.0%. The “Patients who discontinued zanubrutinib” value (Cohort 2) was 20.0%, the Arthralgia (Grade 1) was 4 (6.0) n (%) and the Back pain (Grade 1) was 2 (3.0) n (%). For the same compound, the Bronchitis (Grade 1) was 0 (0.0) n (%), the Cellulitis (Grade 1) was 0 (0.0) n (%) and the Constipation (Grade 1) was 3 (4.5) n (%). For the same compound, the Contusion (Grade 1) was 12 (17.9) n (%), the Cough (Grade 1) was 4 (6.0) n (%) and the Diarrhoea (Grade 1) was 6 (9.0) n (%). For the same compound, the Dizziness (Grade 1) was 3 (4.5) n (%), the Epistaxis (Grade 1) was 4 (6.0) n (%) and the Fatigue (Grade 1) was 8 (11.9) n (%). The Headache (Grade 1) was 4 (6.0) n (%), the Hypertension (Grade 1) was 0 (0.0) n (%) and the Insomnia (Grade 1) was 3 (4.5) n (%). The Muscle spasms (Grade 1) was 4 (6.0) n (%), the Myalgia (Grade 1) was 8 (11.9) n (%) and the Nausea (Grade 1) was 6 (9.0) n (%). For the same compound, the Neutropenia (Grade 1) was 0 (0.0) n (%), the Neutrophil count decrease (Grade 1) was 0 (0.0) n (%) and the Pain in extremity (Grade 1) was 3 (4.5) n (%). The Petechiae (Grade 1) was 5 (7.5) n (%), the Pruritus (Grade 1) was 3 (4.5) n (%) and the Rash (Grade 1) was 5 (7.5) n (%). For the same compound, the Seborrheic keratosis (Grade 1) was 3 (4.5) n (%), the Skin laceration (Grade 1) was 2 (3.0) n (%) and the “Upper respiratory tract infection” value (Grade 1) was 3 (4.5) n (%). For the same compound, the Urinary tract infection (Grade 1) was 1 (1.5) n (%), the Arthralgia (Grade 2) was 5 (7.5) n (%) and the Back pain (Grade 2) was 2 (3.0) n (%). The Bronchitis (Grade 2) was 3 (4.5) n (%), the Cellulitis (Grade 2) was 3 (4.5) n (%) and the Constipation (Grade 2) was 1 (1.5) n (%). The Contusion (Grade 2) was 3 (4.5) n (%), the Cough (Grade 2) was 1 (1.5) n (%) and the Diarrhoea (Grade 2) was 2 (3.0) n (%). For the same compound, the Dizziness (Grade 2) was 4 (6.0) n (%), the Epistaxis (Grade 2) was 1 (1.5) n (%) and the Fatigue (Grade 2) was 6 (9.0) n (%). The Headache (Grade 2) was 0 (0.0) n (%), the Hypertension (Grade 2) was 7 (10.4) n (%) and the Insomnia (Grade 2) was 2 (3.0) n (%). For the same compound, the Muscle spasms (Grade 2) was 1 (1.5) n (%), the Myalgia (Grade 2) was 2 (3.0) n (%) and the Nausea (Grade 2) was 1 (1.5) n (%). For the same compound, the Neutropenia (Grade 2) was 0 (0.0) n (%), the Neutrophil count decrease (Grade 2) was 2 (3.0) n (%) and the Pain in extremity (Grade 2) was 3 (4.5) n (%). The Petechiae (Grade 2) was 0 (0.0) n (%), the Pruritus (Grade 2) was 1 (1.5) n (%) and the Rash (Grade 2) was 0 (0.0) n (%). The Seborrheic keratosis (Grade 2) was 1 (1.5) n (%), the Skin laceration (Grade 2) was 2 (3.0) n (%) and the “Upper respiratory tract infection” value (Grade 2) was 1 (1.5) n (%). The Urinary tract infection (Grade 2) was 4 (6.0) n (%), the Arthralgia (Grade 3) was 0 (0.0) n (%) and the Back pain (Grade 3) was 0 (0.0) n (%). For the same compound, the Bronchitis (Grade 3) was 1 (1.5) n (%), the Cellulitis (Grade 3) was 1 (1.5) n (%) and the Constipation (Grade 3) was 0 (0.0) n (%). The Contusion (Grade 3) was 0 (0.0) n (%), the Cough (Grade 3) was 0 (0.0) n (%) and the Diarrhoea (Grade 3) was 1 (1.5) n (%). The Dizziness (Grade 3) was 0 (0.0) n (%), the Epistaxis (Grade 3) was 0 (0.0) n (%) and the Fatigue (Grade 3) was 0 (0.0) n (%). For the same compound, the Headache (Grade 3) was 0 (0.0) n (%), the Hypertension (Grade 3) was 1 (1.5) n (%) and the Insomnia (Grade 3) was 0 (0.0) n (%). For the same compound, the Muscle spasms (Grade 3) was 0 (0.0) n (%), the Myalgia (Grade 3) was 0 (0.0) n (%) and the Nausea (Grade 3) was 0 (0.0) n (%). The Neutropenia (Grade 3) was 5 (7.5) n (%), the Neutrophil count decrease (Grade 3) was 2 (3.0) n (%) and the Pain in extremity (Grade 3) was 0 (0.0) n (%). For the same compound, the Petechiae (Grade 3) was 0 (0.0) n (%), the Pruritus (Grade 3) was 0 (0.0) n (%) and the Rash (Grade 3) was 0 (0.0) n (%). For the same compound, the Seborrheic keratosis (Grade 3) was 0 (0.0) n (%), the Skin laceration (Grade 3) was 0 (0.0) n (%) and the “Upper respiratory tract infection” value (Grade 3) was 0 (0.0) n (%). The Urinary tract infection (Grade 3) was 0 (0.0) n (%), the Arthralgia (Grade 4) was 0 (0.0) n (%) and the Back pain (Grade 4) was 0 (0.0) n (%). For the same compound, the Bronchitis (Grade 4) was 0 (0.0) n (%), the Cellulitis (Grade 4) was 0 (0.0) n (%) and the Constipation (Grade 4) was 0 (0.0) n (%). The Contusion (Grade 4) was 0 (0.0) n (%), the Cough (Grade 4) was 0 (0.0) n (%) and the Diarrhoea (Grade 4) was 0 (0.0) n (%). The Dizziness (Grade 4) was 0 (0.0) n (%), the Epistaxis (Grade 4) was 0 (0.0) n (%) and the Fatigue (Grade 4) was 0 (0.0) n (%). For the same compound, the Headache (Grade 4) was 0 (0.0) n (%), the Hypertension (Grade 4) was 0 (0.0) n (%) and the Insomnia (Grade 4) was 0 (0.0) n (%). The Muscle spasms (Grade 4) was 0 (0.0) n (%), the Myalgia (Grade 4) was 0 (0.0) n (%) and the Nausea (Grade 4) was 0 (0.0) n (%). The Neutropenia (Grade 4) was 0 (0.0) n (%), the Neutrophil count decrease (Grade 4) was 1 (1.5) n (%) and the Pain in extremity (Grade 4) was 0 (0.0) n (%). For the same compound, the Petechiae (Grade 4) was 0 (0.0) n (%), the Pruritus (Grade 4) was 0 (0.0) n (%) and the Rash (Grade 4) was 0 (0.0) n (%). The Seborrheic keratosis (Grade 4) was 0 (0.0) n (%), the Skin laceration (Grade 4) was 0 (0.0) n (%) and the “Upper respiratory tract infection” value (Grade 4) was 0 (0.0) n (%). The Urinary tract infection (Grade 4) was 0 (0.0) n (%), the Serious atrial fibrillation (Safety Analysis Set, 72 patients) was 2.8% and the Arthralgia (Total) was 9 (13.4) n (%). The Back pain (Total) was 4 (6.0) n (%), the Bronchitis (Total) was 4 (6.0) n (%) and the Cellulitis (Total) was 4 (6.0) n (%). The Constipation (Total) was 4 (6.0) n (%), the Contusion (Total) was 15 (22.4) n (%) and the Cough (Total) was 5 (7.5) n (%). The Diarrhoea (Total) was 9 (13.4) n (%), the Dizziness (Total) was 7 (10.4) n (%) and the Epistaxis (Total) was 5 (7.5) n (%). The Fatigue (Total) was 14 (20.9) n (%), the Headache (Total) was 4 (6.0) n (%) and the Hypertension (Total) was 8 (11.9) n (%). For the same compound, the Insomnia (Total) was 5 (7.5) n (%), the Muscle spasms (Total) was 5 (7.5) n (%) and the Myalgia (Total) was 10 (14.9) n (%). The Nausea (Total) was 7 (10.4) n (%), the Neutropenia (Total) was 5 (7.5) n (%) and the Neutrophil count decrease (Total) was 5 (7.5) n (%). For the same compound, the Pain in extremity (Total) was 6 (9.0) n (%), the Petechiae (Total) was 5 (7.5) n (%) and the Pruritus (Total) was 4 (6.0) n (%). For the same compound, the Rash (Total) was 5 (7.5) n (%), the Seborrheic keratosis (Total) was 4 (6.0) n (%) and the Skin laceration (Total) was 4 (6.0) n (%). For the same compound, the “Upper respiratory tract infection” value (Total) was 4 (6.0) n (%), the Urinary tract infection (Total) was 5 (7.5) n (%) and the Bleeding events (in vivo) was 25 patients. The “Median time to onset of first hypertensive event” value (in vivo) was 105 days, the “Patients requiring dose reductions” value (in vivo) was 9.0% and the “Rate of zanubrutinib discontinuation due to AEs” value (in vivo) was under 10%. The “Increase in zanubrutinib AUC0-∞” value [1, 2] was 3.8 fold, the “Increase in zanubrutinib Cmax” value [1, 2] was 2.6 fold and the “Decrease in zanubrutinib AUC0-∞” value ([1]; coadministration with rifampin) was 13.5 fold. For the same compound, the “Decrease in zanubrutinib Cmax” value ([1]; coadministration with rifampin) was 12.6 fold and the Exposure change ([1]; coadministration with rifampin) was 13 fold.
